Assay results published in PubChem BioAssay (NCI).
Several values for one entry are separate records, joined by “and”; a condition that tells them apart may be missing. Equal values may be shown once.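 Method: 48-hour compound exposure of cells in 96-well plates, five concentrations, linear interpolation of endpoints. GI50 is the concentration that inhibits growth by half. TGI is the concentration that stops growth completely.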

Tests used:
Test in all cases: inhibition of tumour cell growth, NCI panel, 48 h
RPMI-8226 leukemia = tested on: RPMI-8226 leukemia
786-0 renal = tested on: 786-0 renal
SNB-75 CNS = tested on: SNB-75 CNS
OVCAR-8 ovarian = tested on: OVCAR-8 ovarian
KM12 colon = tested on: KM12 colon
UACC-62 melanoma = tested on: UACC-62 melanoma
K-562 leukemia = tested on: K-562 leukemia
EKVX NSCLC = tested on: EKVX NSCLC
LOX IMVI melanoma = tested on: LOX IMVI melanoma
SK-MEL-28 melanoma = tested on: SK-MEL-28 melanoma

| Compound | TGI (RPMI-8226 leukemia) | TGI (786-0 renal) | TGI (SNB-75 CNS) | TGI (OVCAR-8 ovarian) | TGI (KM12 colon) | TGI (UACC-62 melanoma) | TGI (K-562 leukemia) | TGI (EKVX NSCLC) | TGI (LOX IMVI melanoma) | TGI (SK-MEL-28 melanoma) | GI50 (RPMI-8226 leukemia) | GI50 (786-0 renal) | GI50 (SNB-75 CNS) | GI50 (OVCAR-8 ovarian) | GI50 (SK-MEL-28 melanoma) | GI50 (UACC-62 melanoma) | GI50 (K-562 leukemia) | GI50 (EKVX NSCLC) | GI50 (LOX IMVI melanoma) | GI50 (KM12 colon) |
| --- | --- | --- | --- | --- | --- | --- | --- | --- | --- | --- | --- | --- | --- | --- | --- | --- | --- | --- | --- | --- |
| CCOc1ccc2nc(NC(=O)C(=O)C(c3cnc4ccccc4n3)[N+](=O)[O-])sc2c1 (centres undefined) | > 100 µM | > 100 µM | > 100 µM | > 100 µM | > 100 µM | > 100 µM | > 100 µM | > 100 µM | > 100 µM | – | – | – | – | – | – | – | – | – | – | – |
| O=C(NC12CC3CC(CC(C3)C1)C2)C(=O)c1c[nH]c2ccccc12 | 55.3 µM | 25.8 µM | – | – | 28.5 µM | 26.5 µM | – | 32.2 µM | 25.8 µM | 30.3 µM | – | – | – | – | – | – | – | – | – | – |
| COC(C)(C)C/C=C/C(C)=C/C=C/C(C)=C\C=C\C(C)=C\C=C\C=C(C)\C=C\C=C(C)\C=C\C=C(C)\C=C\CC(C)(C)OC | > 150 µg/mL | > 150 µg/mL | > 150 µg/mL | > 150 µg/mL | – | > 150 µg/mL | > 150 µg/mL | > 150 µg/mL | > 150 µg/mL | > 150 µg/mL | > 150 µg/mL | > 150 µg/mL | > 150 µg/mL | > 150 µg/mL | > 150 µg/mL | > 150 µg/mL | > 150 µg/mL | > 150 µg/mL | > 150 µg/mL | – |
| C#CCOc1cccc(Nc2ncnc3cc(NC(=O)CCl)ccc23)c1 | 10.4 µM | 18.5 µM | – | 11 µM | 16.8 µM | 16.9 µM | 4.69 µM | 30 µM | 2.7 µM | 24.4 µM | 3.44 µM | 4.68 µM | – | 3.32 µM | 11 µM | 4.24 µM | 0.628 µM | 12 µM | 1.19 µM | 4.34 µM |
| O=c1c2cc(Cl)ccc2sc2cccc(Cl)c12 | > 100 µM | > 100 µM | – | > 100 µM | > 100 µM | > 100 µM | > 100 µM | > 100 µM | > 100 µM | > 100 µM | – | – | – | – | – | – | – | – | – | – |
| COc1ccc2c(c1)C(=O)c1c-2n(CCCI)c(=O)c2cc([N+](=O)[O-])ccc12 | – | – | 2.37 µM and 15.2 µM | 50 µM and > 100 µM | 50 µM and 46.6 µM | 0.851 µM and 1.35 µM | 50 µM and > 100 µM | 11.8 µM and > 100 µM | 0.763 µM and 1.01 µM | 50 µM and > 100 µM | – | 0.106 µM and 0.0522 µM | 0.198 µM and 0.368 µM | 0.266 µM and 0.338 µM | 0.861 µM and 3.07 µM | 0.109 µM and 0.149 µM | 0.0596 µM and 0.19 µM | – | 0.0743 µM and 0.0432 µM | 0.939 µM and 1.77 µM |
| CC(=O)OCc1cc2ccccc2nc1C(Br)(Br)Br | – | 46 µM | 39.9 µM | – | 27.6 µM | 32.2 µM | 45.4 µM | 41.8 µM | 29.2 µM | 42.6 µM | – | – | – | – | – | – | – | – | – | – |
| CN(C)CCCNC(=O)c1cc(NC(=O)c2cc(NC(=O)CCNS(=O)(=O)c3ccc4c(c3)C(=O)c3ccccc3C4=O)cn2C)cn1C | > 100 µM | > 100 µM | – | > 100 µM | > 100 µM | > 100 µM | > 100 µM | > 100 µM | – | – | > 100 µM | > 100 µM | – | > 100 µM | – | > 100 µM | > 100 µM | > 100 µM | – | > 100 µM |
| CCN(CC)c1ccc(N=Nc2ccc(-c3nc4ccc[n+](C)c4o3)cc2)cc1 | 7.38 µM | 23.7 µM | 24 µM | 18.8 µM | 24.5 µM | 22.6 µM | 12.4 µM | 26.7 µM | 18.5 µM | – | – | – | – | – | – | – | – | – | – | – |
| OCC#Cc1ccccc1C#CCCCCCC#Cc1ccccc1C#CCO | – | 32.3 µM | – | 42.1 µM | 49.4 µM | 32.3 µM | 57.7 µM | 42.4 µM | 34.8 µM | > 100 µM | – | 16.8 µM | – | 17.1 µM | 29 µM | 17.9 µM | 22.4 µM | 21.3 µM | 19.3 µM | 18.8 µM |
| CN(C)c1ccc(/C=C/c2cc[n+](C)c(/C=C/c3ccc(N(C)C)cc3)c2)cc1 | 0.675 µM | 1.7 µM | 2.33 µM | 1.26 µM | 1.42 µM | 1.68 µM | 3.25 µM | – | 1.45 µM | 2.7 µM | 0.123 µM | 0.387 µM | 0.253 µM | 0.294 µM | 0.667 µM | 0.357 µM | 0.163 µM | – | 0.356 µM | 0.33 µM |
| CC(=O)C1=C(O)CC2CC3c4[nH]c5ccccc5c4CCN3CC2C1 (centres undefined) | – | > 100 µM | > 100 µM | > 100 µM | > 100 µM | – | > 100 µM | > 100 µM | > 100 µM | > 100 µM | – | – | – | – | – | – | – | – | – | – |
| O=C(c1ccccc1)c1cn(/N=C\c2ccccc2)c(=O)nc1-c1ccccc1 | – | > 100 µM | > 100 µM | > 100 µM | > 100 µM | > 100 µM | > 100 µM | > 100 µM | > 100 µM | > 100 µM | – | – | – | – | – | – | – | – | – | – |
